Test results reported in US4663327A, “1-heteroaryl-4-aryl-pyrazolin-5-ones” (priority 1984, dated 1987).
Values after ≈ are worked out from the molar mass of the structure shown.

Columns and labels:
Sclerophoma pityophila = assay: MIC on fungi in agar; conditions: Sydowia polyspora, 336 h
Method: (§1) After storage for 2 weeks at 28° C. and 60 to 70% relative atmospheric humidity, the MIC is determined.

Alternaria tenuis = assay: MIC on fungi in agar; conditions: Alternaria alternata, 336 h
Method: as §1

Lentinus tigrinus = assay: MIC on fungi in agar; conditions: 336 h
Method: as §1

Aureobasidium pullulans = assay: MIC on fungi in agar; conditions: 336 h
Method: as §1

Penicillium glaucum = assay: MIC on fungi in agar; conditions: 336 h
Method: as §1

slime organisms = assay: Action against slime organisms in Allen's nutrient solution (MIC); conditions: 504 h
Method: Substances according to the invention, dissolved in a small amount of acetone, are used in concentrations of, in each case, 0.1 to 100 mg/l in Allen's nutrient solution (Arch. Mikrobiol. 17, 34 to 53 (1952)), which contains, in 4 l of sterile water, 0.2 g of ammonium chloride, 4.0 g of sodium nitrate, 1.0 g of dipotassium hydrogen phosphate, 0.2 g of calcium chloride, 2.05 g of magnesium sulphate, 0.02 g of iron chloride and 1% of caprolactam. Shortly beforehand, the nutrient solution is infected with slime organisms (approx. 10^6 organisms/ml) which have been isolated from the spinning water circulations used in the manufacture of polyamide.

Chaetomium globosum = assay: MIC on fungi in agar; conditions: 336 h
Method: as §1

Coniophora puteana = assay: MIC on fungi in agar; conditions: 336 h
Method: as §1

Trichoderma viride = assay: MIC on fungi in agar; conditions: 336 h
Method: as §1

Aspergillus niger = assay: MIC on fungi in agar; conditions: 336 h
Method: as §1

Polyporus versicolor = assay: MIC on fungi in agar; conditions: Trametes versicolor, 336 h
Method: as §1

Pyricularia oryzae [1] = assay type: in vivo; conditions: rice, soil watered 7 days before inoculation, disease infestation 4 days after inoculation
Cochliobolus sativus = Cochliobolus sativus test (barley)/protective; assay type: in vivo; conditions: sprayed, evaluation 7 days after inoculation
Method: Cochliobolus sativus test (barley)/protective Solvent: 100 parts by weight of dimethylformamide Emulsifier: 0.25 parts by weight of alkylaryl polyglycol ether To produce a suitable preparation of active compound, 1 part by weight of active compound is mixed with the stated amounts of solvent and emulsifier, and the concentrate is diluted with water to the desired concentration. To test for protective activity, young plants are sprayed with the preparation of active compound until dew-moist. After the spray coating has dried on, the plants are sprayed with a conidia suspension of Cochliobolus sativus. The plants remain in an incubation cabinet for 48 hours at 20° C. and 100% relative atmospheric humidity. The plants are placed in a greenhouse at a temperature of about 20° C. and a relative atmospheric humidity of about 80%. Evaluation is carried out 7 days after the inoculation.

Botrytis cinerea = assay: Botrytis test (BEAN)/protective; assay type: in vivo; conditions: sprayed, infected spots on leaves evaluated 3 days after inoculation
Method: Botrytis test (BEAN)/protective Solvent: 4.7 parts by weight of acetone Emulsifier: 0.3 parts by weight alkyl aryl polyglycol ether To produce a suitable preparation of active compound, 1 pat by weight of active compound is mixed with the stated amounts of solvent and emulsifier, and the concentrate is diluted with water to the desired concentration. To test for protective activity, young plants are sprayed with the preparation of active compound until dripping wet. After the spray coating has dried on, 2 small pieces of agar covered with Botrytis cinerea are placed on each leaf. The inoculated plants are placed in a darkened humidity chamber at 20° C. 3 days after the inoculation, the size of the infected spots on the leaves is evaluated.

Drechslera graminea = Drechslera graminea test (barley)/seed treatment; assay type: in vivo, Drechslera graminea (syn. Helminthosporium gramineum); conditions: seed dry dressing, about 3 weeks after sowing
Method: Drechslera […] (barley)/seed treatment (syn. Helminthosporium gramineum) The active compounds are used as dry dressings. These are prepared by extending the paticular active compound with a ground mineral to give a finely pulverulent mixture, which ensures uniform distribution on the seed surface. To apply the dressing, the infected seed is shaken with the dressing in a closed glass flask for 3 minutes. The seed is embedded in sieved, moist standard soil and is exposed to a temperature of 4° C. in closed Petri dishes in a refrigerator for 10 days. Germination of the barley, and possibly also of the fungus spores, is thereby initiated. 2 batches of 50 grains of the pregerminated barley are subsequently sown 3 cm deep in standard soil and are cultivated in a greenhouse at a temperature of about 18° C., in seedboxes which are exposed to light for 15 hours daily. About 3 weeks after sowing, the plants are evaluated for symptons of stripe disease.

Leptosphaeria nodorum = Leptosphaeria nodorum test (wheat)/protective; assay type: in vivo; conditions: sprayed, evaluation 10 days after inoculation
Method: Leptosphaeria nodorum test (wheat)/protective Solvent: 100 parts by weight of dimethylformamide Emulsifier: 0.25 parts by weight of alkylaryl polyglycol ether To produce a suitable preparation of active compound, 1 part by weight of active compound is mixed with the stated amounts of solvent and emulsifier, and the concentrate is diluted with water to the desired concentration. To test for protective activity, young plants are sprayed with the preparation of active compound until dew-moist. After the spray coating has dried on, the plants are sprayed with a conidia suspension of Leptosphaeria nodorum. The plants remain for 48 hours in an incubation cabinet at 20° C. and 100% relative atmospheric humidity. The plants are placed in a greenhouse at a temperature of about 15° C. and a relative atmospheric humidity of about 80%. Evaluation is effected 10 days after the inoculation.

Phytophthora infestans = assay type: in vivo; conditions: tomato, sprayed, evaluation 3 days after inoculation
Pyricularia oryzae [2] = assay type: in vivo; conditions: rice, sprayed, disease infestation 4 days after inoculation

`O=c1c(-c2ccccc2)c[nH]n1-c1ccccn1` [Example 4, 1-pyrid-2-yl-4-phenyl-pyrazolin-5-one] was tested, and the MIC (Sclerophoma pityophila) was 10 µg/mL (≈ 42.1 µM), the MIC (Alternaria tenuis) was 50 µg/mL (≈ 211 µM) and the MIC (Lentinus tigrinus) was 75 µg/mL (≈ 316 µM). The MIC (Aureobasidium pullulans) was 100 µg/mL (≈ 421 µM), the MIC (Penicillium glaucum) was 10 µg/mL (≈ 42.1 µM) and the MIC (slime organisms) was 15 µg/mL (≈ 63.2 µM). For the same compound, the MIC (Chaetomium globosum) was 1.5 µg/mL (≈ 6.32 µM), the MIC (Coniophora puteana) was 5 µg/mL (≈ 21.1 µM) and the MIC (Trichoderma viride) was 200 µg/mL (≈ 843 µM). For the same compound, the MIC (Aspergillus niger) was 7.5 µg/mL (≈ 31.6 µM) and the MIC (Polyporus versicolor) was 35 µg/mL (≈ 148 µM).
With `Cc1ccccc1-c1c[nH]n(-c2ccccn2)c1=O` [Example 21] the systemic activity (Pyricularia oryzae [1]) was “clearly superior activity compared with the prior art”, the MIC (Sclerophoma pityophila) was 35 µg/mL (≈ 139 µM) and the MIC (Alternaria tenuis) was 10 µg/mL (≈ 39.8 µM). For the same compound, the MIC (Lentinus tigrinus) was 50 µg/mL (≈ 199 µM), the MIC (Aureobasidium pullulans) was 35 µg/mL (≈ 139 µM) and the protective activity (Cochliobolus sativus) was “clearly superior activity compared with the prior art”. It also gave an MIC (Penicillium glaucum) of 7.5 µg/mL (≈ 29.8 µM), an MIC (Chaetomium globosum) of 0.75 µg/mL (≈ 2.98 µM) and an MIC (Coniophora puteana) of 5 µg/mL (≈ 19.9 µM). The MIC (Trichoderma viride) was 50 µg/mL (≈ 199 µM), the MIC (Aspergillus niger) was 7.5 µg/mL (≈ 29.8 µM) and the protective activity (Botrytis cinerea) was “clearly superior activity compared with the prior art”. The MIC (Polyporus versicolor) was 7.5 µg/mL (≈ 29.8 µM) and the “activity, symptoms of stripe disease” value (Drechslera graminea) was “clearly superior activity compared with the prior art”.
For `O=c1c(-c2ccc(OC(F)(F)F)cc2)c[nH]n1-c1ccccn1` [Example 18], the systemic activity (Pyricularia oryzae [1]) was “clearly superior activity compared with the prior art”, the protective activity (Cochliobolus sativus) was “clearly superior activity compared with the prior art” and the protective activity (Leptosphaeria nodorum) was “clearly superior activity compared with the prior art”.
`O=c1c(-c2ccc(F)cc2)c[nH]n1-c1ncccn1` [Example 83] showed an MIC (Sclerophoma pityophila) of 5 µg/mL (≈ 19.5 µM), an MIC (Alternaria tenuis) of 50 µg/mL (≈ 195 µM) and an MIC (Lentinus tigrinus) of 50 µg/mL (≈ 195 µM). The MIC (Aureobasidium pullulans) was 50 µg/mL (≈ 195 µM), the MIC (Penicillium glaucum) was 20 µg/mL (≈ 78.1 µM) and the MIC (slime organisms) was 35 µg/mL (≈ 137 µM). It also gave an MIC (Chaetomium globosum) of 3.5 µg/mL (≈ 13.7 µM), an MIC (Coniophora puteana) of 5 µg/mL (≈ 19.5 µM) and an MIC (Trichoderma viride) of 75 µg/mL (≈ 293 µM). It also gave an MIC (Aspergillus niger) of 15 µg/mL (≈ 58.5 µM) and an MIC (Polyporus versicolor) of 35 µg/mL (≈ 137 µM).
In the case of `Cc1cccc(-c2c[nH]n(-c3ncccn3)c2=O)c1` [Example 97], the systemic activity (Pyricularia oryzae [1]) is reported as “clearly superior activity compared with the prior art”, the MIC (Sclerophoma pityophila) is reported as 20 µg/mL (≈ 79.3 µM) and the MIC (Alternaria tenuis) is reported as 50 µg/mL (≈ 198 µM). The MIC (Lentinus tigrinus) was 10 µg/mL (≈ 39.6 µM), the MIC (Aureobasidium pullulans) was 50 µg/mL (≈ 198 µM) and the MIC (Penicillium glaucum) was 10 µg/mL (≈ 39.6 µM). It also gave an MIC (Chaetomium globosum) of 1 µg/mL (≈ 3.96 µM), an MIC (Coniophora puteana) of 2 µg/mL (≈ 7.93 µM) and an MIC (Trichoderma viride) of 75 µg/mL (≈ 297 µM). It also gave an MIC (Aspergillus niger) of 10 µg/mL (≈ 39.6 µM) and an MIC (Polyporus versicolor) of 5 µg/mL (≈ 19.8 µM).
`O=c1c(-c2ccc(SC(F)(F)F)cc2)c[nH]n1-c1ncccn1` [Example 94] was tested, and the systemic activity (Pyricularia oryzae [1]) was “clearly superior activity compared with the prior art” and the protective activity (Botrytis cinerea) was “clearly superior activity compared with the prior art”.
Compound `Cc1ccc(-c2c[nH]n(-c3ccccn3)c2=O)cc1` [Example 23] has an MIC (Sclerophoma pityophila) of 20 µg/mL (≈ 79.6 µM), an MIC (Alternaria tenuis) of 75 µg/mL (≈ 298 µM) and an MIC (Lentinus tigrinus) of 75 µg/mL (≈ 298 µM). It also gave an MIC (Aureobasidium pullulans) of 50 µg/mL (≈ 199 µM), an MIC (Penicillium glaucum) of 5 µg/mL (≈ 19.9 µM) and an MIC (slime organisms) of 7.5 µg/mL (≈ 29.8 µM). For the same compound, the MIC (Chaetomium globosum) was 0.5 µg/mL (≈ 1.99 µM), the MIC (Coniophora puteana) was 35 µg/mL (≈ 139 µM) and the MIC (Trichoderma viride) was 1000 µg/mL (≈ 3980 µM). The MIC (Aspergillus niger) was 7.5 µg/mL (≈ 29.8 µM) and the MIC (Polyporus versicolor) was 3.5 µg/mL (≈ 13.9 µM).
With `O=c1c(-c2cccc3ccccc23)c[nH]n1-c1ncccn1` [Example 105] the systemic activity (Pyricularia oryzae [1]) was “clearly superior activity compared with the prior art”, the protective activity (Phytophthora infestans) was “clearly superior activity compared with the prior art” and the protective activity (Pyricularia oryzae [2]) was “clearly superior activity compared with the prior art”.
With `O=c1c(-c2cc(C(F)(F)F)ccc2Cl)c[nH]n1-c1ncccn1` [Example 102] the systemic activity (Pyricularia oryzae [1]) was “clearly superior activity compared with the prior art”, the protective activity (Phytophthora infestans) was “clearly superior activity compared with the prior art” and the protective activity (Botrytis cinerea) was “clearly superior activity compared with the prior art”. For the same compound, the protective activity (Pyricularia oryzae [2]) was “clearly superior activity compared with the prior art”.
